This passage reports DSF results from patent US20260285857A1, “BICYCLIC AND HETEROCYCLIC AMIDE COMPOUNDS” (priority 2024, published 2026).

For the first experiment, the system named is immunoglobulin light chain protein WIL-FL T46L. Briefly: Differential scanning fluorimetry (thermal shift) assay. To be noted: Table A; temperature shift [Tm]compound-[Tm]vehicle; recombinant WIL-FL T46L. It counts as binding. (In general: DSF heats the sample and reads unfolding from a dye or from intrinsic fluorescence.)
As to `Cc1cc(N2CC[C@](C)(c3ccccc3)C2)cn2nc(C(=O)N3CC(O)C3)nc12` [Compound 128], the DSF entry is listed as “***** (>2.5° C.=*****)”. Take `Cc1cc(N2CC[C@](C)(c3ccccc3)C2)cn2nc(C(=O)NC3CCC(c4ccc(C(=O)O)c(F)c4)CC3)nc12` (some centres unmarked) [Compound 224]: the DSF result was “***** (>2.5° C.=*****)”.

In the case of `Cc1cc(N2CC[C@](C)(c3ccccc3)C2)cn2nc(C34CCC(NC(=O)CC(C)(C)O)(C3)O4)nc12` (some centres unmarked) [Compound 53], the DSF entry was “***** (>2.5° C.=*****)”. Take `CO[C@@H]1CNC[C@H]1NC(=O)c1nc2c(C)cc(N3CC[C@](C)(c4ccccc4)C3)cn2n1` [Compound 140]: the DSF entry is reported as “***** (>2.5° C.=*****)”. On to `Cc1cc(N2CC[C@](C)(c3ccccc3)C2)cn2nc(C(=O)N[C@H]3CCN(CC(F)F)C3)nc12` [Compound 193], for which the DSF result was “***** (>2.5° C.=*****)”. Still for that read-out and setting: the same measure for `Cc1cc(N2CCC(C)(c3ccccc3)C2=O)cn2nc(C(=O)N3CC[C@@]4(CCN(c5cccc(C(=O)O)n5)C4)C3)nc12` (some centres unmarked) [Compound 386]: “** (>0.5-1 °C =**)”; for `Cc1noc(C2(C)CCN(c3cc(C)c4nc(C(=O)N5C[C@@H]6CN(c7cccc(C(=O)O)n7)C[C@@H]6C5)nn4c3)C2)n1` (some centres unmarked) [Compound 300]: “*** (>1-1.5° C.=***)”. In the case of `Cc1cc(OC[C@H](C)c2cccc(F)c2)cn2nc(C(=O)NC3CCN(c4ccnc(C(=O)O)c4)CC3)nc12` [Compound 308], the DSF entry is reported as “***** (>2.5° C.=*****)”. Turning to `Cc1cc(OC[C@H](C)c2ccccc2)cn2nc(C(=O)NC3CC4(C3)CC(N3CC5C(C3)C5C(=O)O)C4)nc12` (some centres unmarked) [Compound 314], the DSF entry is on record as “***** (>2.5° C.=*****)”. Still for that read-out and setting: the same measure for `Cc1cc(N2CC[C@](C)(c3ccccc3)C2)cn2nc(C(=O)Nc3ccnc(C(=O)O)c3)nc12` [Compound 262]: “***** (>2.5° C.=*****)”.

Turning to `Cc1cc(N2CC[C@](C)(c3ccccc3)C2)cn2nc(C(=O)NC3CC4(C3)CC(C(=O)O)C4)nc12` (some centres unmarked) [Compound 112], the DSF entry is on record as “***** (>2.5° C.=*****)”. On to `Cc1cc(N2CC[C@@](CO)(c3ccccc3)C2)cn2nc(C(=O)N3CC[C@@]4(CCN(c5cccc(C(=O)O)n5)C4)C3)nc12` [Compound 331], for which the DSF result is “** (>0.5-1 °C =**)”. On the same count and under the same terms, the same measure for `Cc1cc(N2CC[C@](C)(c3ccccc3)C2)cn2nc(C(=O)N3CCOCC3)nc12` [Compound 196]: “***** (>2.5° C.=*****)”; for `Cc1cc(N2CC[C@](C)(c3ccccc3)C2)cn2nc(C(=O)N[C@@H]3CC[C@H]3O)nc12` [Compound 160]: “***** (>2.5° C.=*****)”. Turning to `Cc1cc(N2CC[C@](C)(c3ccccc3)C2)cn2nc(C(=O)N3CC4CN(c5cccc(C(=O)O)n5)CC4(C(F)(F)F)C3)nc12` (some centres unmarked) [Compound 249], the DSF result is “***** (>2.5° C.=*****)”. In the case of `Cc1cc(N2CC[C@](C)(c3ccccc3)C2)cn2nc(C34CC(C(N)=O)(CO3)C4C(N)=O)nc12` (some centres unmarked) [Compound 45], the DSF result is “***** (>2.5° C.=*****)”.

On to `COC(=O)c1n[nH]c(N2CCC3(CCN(C(=O)c4nc5c(C)cc(N6CC[C@](C)(c7ccccc7)C6)cn5n4)C3)C2)n1` (some centres unmarked) [Compound 233], for which the DSF entry was “***** (>2.5° C.=*****)”. For the compound `Cc1cc(N2CC[C@](C)(c3ccccc3)C2)cn2nc(C(=O)N3CCOC(C(=O)O)C3)nc12` (some centres unmarked) [Compound 176], the DSF result is listed as “***** (>2.5° C.=*****)”. Regarding `Cc1cc(N2CC[C@](C)(c3ccccc3)C2)cn2nc(C(=O)NC3CC4(C3)CC(N3CC5C(C3)C5C(=O)O)C4)nc12` (some centres unmarked) [Compound 379], the DSF result is reported as “***** (>2.5° C.=*****)”. As to `Cc1cc(N2CC[C@](C)(c3ccccc3)C2)cn2nc([C@@]34CO[C@@H](C3)C(N)C4)nc12` (some centres unmarked) [Compound 67], the DSF result was “**** (>1.5-2.5° C.=****)”. As to `Cc1cc(N2CC[C@](C)(c3ccccc3)C2)cn2nc(C(=O)NC3COC4(CNC4)C3)nc12` (some centres unmarked) [Compound 152], the DSF result is “***** (>2.5° C.=*****)”. Regarding `Cc1cc(N2CC[C@](C)(c3ccccc3)C2)cn2nc(C(=O)NC3CCN(c4nccc(C(=O)O)n4)CC3)nc12` [Compound 238], the DSF entry is “***** (>2.5° C.=*****)”.

`COC(CO)CNC(=O)c1nc2c(C)cc(N3CC[C@](C)(c4ccccc4)C3)cn2n1` (some centres unmarked) [Compound 148]: the DSF result is recorded as “***** (>2.5° C.=*****)”. Take `Cc1cc(N2CC[C@](C)(c3ccccc3)C2)cn2nc(C(=O)N3CC4(C(=O)O)CC3C4)nc12` [Compound 439]: the DSF entry was “***** (>2.5° C.=*****)”. The same measure, in the same setting: the same measure for `Cc1cc(N2CC[C@](C)(c3ccccc3)C2)cn2nc(C(=O)NC3(CO)CCOCC3)nc12` [Compound 131]: “***** (>2.5° C.=*****)”; for `Cc1cc(N2CC[C@](C)(c3ccccc3)C2)cn2nc([C@]34CO[C@H](C3)C(N)C4)nc12` (some centres unmarked) [Compound 68]: “**** (>1.5-2.5° C.=****)”; for `CC(C)(O)CNC(=O)c1nc2c(CO)cc(N3CC[C@](C)(c4ccccc4)C3)cn2n1` [Compound 350]: “***** (>2.5° C.=*****)”. Same read-out and setting: the same measure for `C[C@]1(c2ccccc2)CCN(c2cc(N)c3cc(C(=O)N4CC[C@@]5(CCN(c6cccc(C(=O)O)n6)C5)C4)nn3c2)C1` [Compound 22, 6-((R)-7-(4-amino-6-((R)-3-methyl-3-phenylpyrrolidin-1-yl)pyrazolo[1,5-a]pyridine-2-carbonyl)-2,7-diazaspiro[4.4]nonan-2-yl)picolinic acid]: “**** (>1.5-2.5° C.=****)”.

On to `Cc1ncn(C2(C)CCN(c3cc(C)c4nc(C(=O)N5C[C@@H]6CN(c7cccc(C(=O)O)n7)C[C@@H]6C5)nn4c3)C2=O)n1` (stereo partly drawn) [Compound 25, 6-((3aR,6aS)-5-(8-methyl-6-(3-methyl-3-(3-methyl-1H-1,2,4-triazol-1-yl)-2-oxopyrrolidin-1-yl)-[1,2,4]triazolo[1,5-a]pyridine-2-carbonyl)hexahydropyrrolo[3,4-c]pyrrol-2(1H)-yl)picolinic acid], for which the DSF entry is “* (0-0.5° C.=*)”.

Turning to `Cc1cc(OC[C@H](C)c2ccccc2)cn2nc(C(=O)N3CCC(C)(O)C3)nc12` (some centres unmarked) [Compound 316], the DSF result is on record as “**** (>1.5-2.5° C.=****)”.

Still in this experiment, the particulars now being: Table B; temperature shift [Tm]compound-[Tm]vehicle; recombinant WIL-FL T46L.
Regarding `CCC1(c2ccccc2)CN(c2cc(C)c3nc(C(=O)N4C[C@@H]5CN(c6cccc(C(=O)O)n6)C[C@@H]5C4)nn3c2)C1` [Compound 631], the DSF result is listed as “***** (>2.5° C.=*****)”.

Turning to `Cc1cc(N2CC[C@](C)(c3ccccc3)C2)cn2nc(C(=O)NC3CC4(C3)CC(N3CCC(C(=O)O)CC3)C4)nc12` (some centres unmarked) [Compound 599], the DSF result is given as “***** (>2.5° C.=*****)”. With `Cc1cc(N2CC[C@](C)(c3ccccc3)C2)cn2nc(C34CC(NC(=O)C5(C(=O)O)CCC5)(CO3)C4)nc12` [Compound 467], the DSF result is reported as “***** (>2.5° C.=*****)”. Regarding `Cc1cc(N2CC3(CCC3c3cccc(F)c3)C2)cn2nc(C34CC(CO3)C4N3CC4(CC4)NC3=O)nc12` (centres unmarked) [Compound 512, 6-[1-[6-[7-(3-fluorophenyl)-2-azaspiro[3.3]heptan-2-yl]-8-methyl-[1,2,4]triazolo[1,5-a]pyridin-2-yl]-2-oxabicyclo[2.1.1]hexan-5-yl]-4,6-diazaspiro[2.4]heptan-5-one], the DSF result was “***** (>2.5° C.=*****)”. On to `Cc1cc(N2CC[C@](C)(c3ccccc3)C2)cn2nc(C(=O)N3CCC4(COCC(C(=O)O)O4)C3)nc12` (some centres unmarked) [Compound 598], for which the DSF result was “***** (>2.5° C.=*****)”. In the case of `Cc1cc(N2CC[C@](C)(c3ccccc3)C2)cn2nc(C34CC(CO)(CO3)C4N3CC4(COC4)NC3=O)nc12` (some centres unmarked) [Compound 577], the DSF result is listed as “***** (>2.5° C.=*****)”. The same measure, in the same setting: the same measure for `Cc1cc(N2CC[C@](C)(c3ccccc3)C2)cn2nc(C34CC(COCC(=O)O)(CO3)C4)nc12` [Compound 459, 2-[[1-[8-methyl-6-[(3R)-3-methyl-3-phenyl-pyrrolidin-1-yl]-[1,2,4]triazolo[1,5-a]pyridin-2-yl]-2-oxabicyclo[2.1.1]hexan-4-yl]methoxy]acetic acid]: “***** (>2.5° C.=*****)”; for `Cc1cc(OC[C@H](C)c2ccccc2)cn2nc(C34CC(CO3)C4Cn3ncnc3C)nc12` (stereo partly drawn) [Compound 486, 8-methyl-2-[5-[(5-methyl-1,2,4-triazol-1-yl)methyl]-2-oxabicyclo[2.1.1]hexan-1-yl]-6-[(2R)-2-phenylpropoxy]-[1,2,4]triazolo[1,5-a]pyridine]: “**** (>1.5-2.5° C.=****)”.

`Cc1cc(N2CC[C@](C)(c3ccccc3)C2)cn2nc(C34CC(CO3)C4c3nc(NC(=O)c4cccc(C(=O)O)n4)n[nH]3)nc12` (some centres unmarked) [Compound 549]: the DSF result is “***** (>2.5° C.=*****)”. As for `Cc1cc(N2CC[C@](C)(c3ccccc3)C2)cn2nc(C34CC(Nc5cccc(C(=O)O)n5)(CO3)C4)nc12` [Compound 465, (R)-6-((1-(8-methyl-6-(3-methyl-3-phenylpyrrolidin-1-yl)-[1,2,4]triazolo[1,5-a]pyridin-2-yl)-2-oxabicyclo[2.1.1]hexan-4-yl)amino)picolinic acid], the DSF entry was “***** (>2.5° C.=*****)”. In the case of `Cc1ncn(CC23COC(c4nc5c(C)cc(N6CC[C@](C)(c7ccccc7)C6)cn5n4)(C2)C3)n1` [Compound 447], the DSF entry is given as “***** (>2.5° C.=*****)”.

Turning to `Cc1cc(N2CC[C@](C)(c3ccccc3)C2)cn2nc(C(=O)N[C@H]3[C@@H]4CN(c5cccc(C(=O)O)n5)C[C@@H]43)nc12` [Compound 628], the DSF result is “***** (>2.5° C.=*****)”.

Regarding `Cc1cc(N2CC[C@](C)(c3ccccc3)C2)cn2nc(C(=O)N3CC4COCC4(C(=O)O)C3)nc12` (some centres unmarked) [Compound 604], the DSF result was “***** (>2.5° C.=*****)”.

On to `Cc1cc(N2CC[C@](C)(c3ccccc3)C2)cn2nc(C34CC(CO3)C4c3nc(NC(=O)C4CC(C(=O)O)C4)n[nH]3)nc12` (some centres unmarked) [Compound 550], for which the DSF result is reported as “***** (>2.5° C.=*****)”.

`Cc1cc(N2CC[C@](C)(c3ccccc3)C2)cn2nc(C(=O)N3CC[C@@]4(CCN(C(=O)C5COC(C(=O)O)C5)C4)C3)nc12` (some centres unmarked) [Compound 672]: the DSF entry is “***** (>2.5° C.=*****)”. On to `C[C@]1(c2ccccc2)CCN(c2cc(CO)c3nc(C45CC(CO4)C5C(N)=O)nn3c2)C1` (some centres unmarked) [Compound 495], for which the DSF entry was “***** (>2.5° C.=*****)”. Same read-out and setting: the same measure for `Cc1cc(N2CC[C@](C)(c3ccccc3)C2)cn2nc([C@@]34C[C@@H](CO3)[C@H]4N3CC4(CN(c5cccc(C(=O)O)n5)C4)NC3=O)nc12` [Compound 519]: “***** (>2.5° C.=*****)”.
